Measured values from PMC9171646 (Proceedings of the National Academy of Sciences of the …, 2022).
“Also recorded” adds a separate entry of the source.

Assays:
[1] = system: EF-G(GDP)-ribosome INT2; conditions: cited from earlier work
[2] = system: EF-G; conditions: cited from earlier work
[3] = system: EF-G-bound translocating 70S ribosome; experiment: Presteady-state smFRET imaging of translocation; format: biochemical, E. coli; conditions: for Final state after prolonged stalling: 400 ms time resolution, extended imaging (Fig. S4A); for Effect on translocation: EF-G(GTP) delivered with 10 µM drug to PRE ribosomes, 25 °C; for Affinity for ribosome-bound EF-G vs EF-G in solution: inferred from smFRET with EF-G in excess
[4] = system: eEF2; conditions: cited from earlier work
[5] = system: EF-G-ribosome translocation intermediate (INT2); experiment: Presteady-state cryo-EM structure of EF-G-ArgB-INT2 translocation intermediate; format: binding, E. coli
[6] = system: Pseudomonas aeruginosa; conditions: cited from earlier work
[7] = system: E. coli EF-G-70S ribosome; experiment: Cryo-EM structure of EF-G-ArgB-70S complex; format: binding
[8] = system: EF-G from P. aeruginosa (EF-G1); conditions: free P. aeruginosa EF-G1; cited from earlier work
[9] = system: P. aeruginosa EF-G1; conditions: cited from earlier work

Molecule | Binding site on EF-G [1] | Resistance by EF-G mutations [2] | Final state after prolonged stalling [3] | Effect on translocation [3] | Binding site on eEF2 [4] | Binding site on EF-G in translocation intermediate ([5]; 10 µM ArgB, 5 µM EF-G, 1 mM GTP) | Contacts of ArgB in EF-G binding pocket ([5]; EF-G-ArgB-INT2, E. coli numbering) | Inhibition of ribosomes with EF-G in excess ([3]; EF-G in fivefold excess over ArgB (10 µM ArgB, 50 µM EF-G)) | Affinity for ribosome-bound EF-G vs EF-G in solution [3] | Affinity for ribosome-bound EF-G vs EF-G in solution ([3]; listed as Argyrin B) | Antimicrobial activity against P. aeruginosa [6] | Binding site on EF-G ([7]; 50 µM ArgB, 0.4 µM 70S, 1 µM EF-G, 500 µM GTP) | State in which EF-G is trapped ([7]; nucleotide density compatible with GDP, switch-I disordered) | Direct binding to EF-G1, binding site [8] | Resistance by mutation of Pro414 ([9]; ArgB-resistant strains) | Resistance by Thr671Ala (E. coli Thr668) ([9]; P. aeruginosa EF-G1 domain V)
CC(=O)O[C@H]1C[C@@]2(C)[C@@H](C[C@@H](O)[C@H]3[C@@]4(C)CC[C@@H](O)[C@@H](C)[C@@H]4CC[C@@]32C)/C1=C(\CCC=C(C)C)C(=O)O [FA, fusidic acid, reference compound] | between domains I and III | mutations in EF-G have been reported to confer FA resistance | eventually reached an EF-G-bound drug-stalled POST state after prolonged stalling | prolonged stalls during late steps of translocation | – | – | – | – | – | – | – | – | – | – | – | –
CO[C@H]1[C@@H](O)[C@H](O)[C@H](OC[C@@]23C[C@@H]4[C@H](C)CC[C@H]4[C@@]4(C=O)CC2C=C(C(C)C)[C@@]34C(=O)O)O[C@@H]1C [Sordarin] | – | – | – | – | binds between domains III and V of eEF2 | – | – | – | – | – | – | – | – | – | – | –
argyrin B [ArgB] | – | – | eventually reached an EF-G-bound drug-stalled POST state after prolonged stalling | prolonged stalls during late steps of translocation | – | in the junction between EF-G domains III and V | van der Waals interactions with Met617, Leu660, and Met682 within domain V of EF-G and the backbone amide of Ala489 of EF-G was positioned within hydrogen bonding distance to the Sarcosine moiety | all ribosomes were inhibited | preferentially binds with high affinity to EF-G when it is bound to the ribosome; also recorded: lower affinity for EF-G in solution than on the ribosome | low affinity toward EF-G off the ribosome, but high affinity to EF-G bound to the ribosome | at the forefront | between domain III and V of EF-G | traps EF-G on the ribosome after GTP hydrolysis and Pi release | bind directly to EF-G from P. aeruginosa (EF-G1) with the binding site located between domains III and V | commonly mutated in ArgB-resistant strains | resistance to ArgB
